Results as given in patent US10703751B2, “Amino-imidazopyridine derivatives as Janus kinase inhibitors and pharmaceutical use thereof” (LEO Pharma A/S, priority 2017, dated 2020).
Like-named read-outs stand apart in the source and are kept apart here.

Assays:
TYK2 = TYK2 (Homo sapiens (Human), UniProt P29597); experiment: TYK2 kinase assay (HTRF); assay type: biochemical
Protocol: (§1) Human baculovirus-expressed Janus kinase (JAK) 1, 2, 3 and tyrosin kinase (TYK) 2 were purchased from Carna Biosciences, Inc (#08-144, -045, -046, -147 resp.). All four purified enzymes contain only the catalytic domain. JAK1 (aa 850-1154) and TYK2 (aa 871-1187) are expressed with an N-terminally fused GST-tag, and JAK2 and JAK3 with an N-terminally fused His-tag. Inhibition of phosphorylation of a synthetic peptide was measured in an HTRF-based assay (CisBio #62TKOPEC). First, 75 nL of test compound solution (100% DMSO) was added to a white shallow 384-well plate (NUNC #264706) using a Labcyte ECHO 550 liquid handler. Thereafter, 1 μL of compound dilution buffer (50 mM HEPES, 0.05% bovine serum albumin) and 2 μL of TK solution (TK substrate-biotin in kinase buffer [1× enzymatic buffer from HTRFKinEASE TK kit, 1 mM DTT]) was added. Then, 5 μL kinase-ATP mix (prepared in kinase buffer) was added to the wells and the plates were incubated at RT for 20 (JAK2, 3 and TYK2) to 40 (JAK1) min. For all four kinases a concentration of ATP that corresponded to the Km for ATP was used. The final concentrations of buffers, substrate, kinase and ATP were: JAK1: 50 mM Hepes buffer pH 7.0, 0.01% BSA, 10 mM MgCl2, 1 mM DTT, 7 μM ATP, 50 nM SEB, 1 μM TK Substrate-Biotin and 5 ng/well JAK1; JAK2: 50 mM Hepes buffer pH 7.0, 0.01% BSA, 5 mM MgCl2, 1 mM DTT, 4 μM ATP, 1 μM TK Substrate-Biotin and 0.1 ng/well JAK2; JAK3: 50 mM Hepes buffer pH 7.0, 0.01% BSA, 5 mM MgCl2, 1 mM DTT, 2 μM ATP, 1 μM TK Substrate-Biotin and 0.3 ng/well JAK3; TYK2: 50 mM Hepes buffer pH 7.0, 0.01% BSA, 5 mM MgCl2, 1 mM DTT, 13 μM ATP, 50 nM SEB, 1 μM TK Substrate-Biotin and 0.8 ng/well TYK2. Thereafter, the kinase reaction was stopped by adding 4 μL detection mix (final concentrations: 50 mM Hepes buffer pH 7.0, 0.01% BSA, 0.8 M KF, 20 mM EDTA, 42 nM Streptavidin-XL665 and 1:400 STK Ab Cryptate) and the plates were incubated overnight in the dark. A PerkinElmer Envision reader was used to quantify the HTRF signal using the following filters; 320 nm excitation filter, 665 nm emission filter and a 615 nm 2nd emission filter. A ratio ((665/615)×10^4) was calculated for each well.

JAK2 = JAK2 (Homo sapiens (Human), UniProt O60674); experiment: JAK2 kinase assay (HTRF); assay type: biochemical; details: ATP at Km (4 μM)
Sequence of JAK2 (O60674 849-1124): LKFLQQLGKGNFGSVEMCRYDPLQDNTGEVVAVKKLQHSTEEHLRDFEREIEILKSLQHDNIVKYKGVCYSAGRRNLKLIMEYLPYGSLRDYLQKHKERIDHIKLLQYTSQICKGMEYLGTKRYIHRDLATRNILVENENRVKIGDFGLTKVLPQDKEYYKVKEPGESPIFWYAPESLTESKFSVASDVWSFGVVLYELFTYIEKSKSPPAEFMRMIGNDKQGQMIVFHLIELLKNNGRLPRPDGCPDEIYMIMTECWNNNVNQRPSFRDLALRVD
Protocol: as §1

JAK1 = JAK1 (Homo sapiens (Human), UniProt P23458); experiment: JAK1 kinase assay (HTRF); assay type: biochemical; details: for JAK2/JAK1 ratio / JAK3/JAK1 ratio: ratio of the respective EC50
Sequence of JAK1 (P23458 850-1154): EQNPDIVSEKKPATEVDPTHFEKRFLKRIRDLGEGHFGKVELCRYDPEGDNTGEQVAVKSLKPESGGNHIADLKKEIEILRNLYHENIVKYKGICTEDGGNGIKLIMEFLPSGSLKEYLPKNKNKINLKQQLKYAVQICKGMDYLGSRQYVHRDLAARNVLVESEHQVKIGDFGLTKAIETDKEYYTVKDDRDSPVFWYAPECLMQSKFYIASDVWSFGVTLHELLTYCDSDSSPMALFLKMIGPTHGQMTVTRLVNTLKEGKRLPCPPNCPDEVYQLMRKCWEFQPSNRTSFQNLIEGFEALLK
Protocol: as §1

STAT6 bla-RA1 cells = experiment: STAT6 assay (IL-4 stimulated reporter cells); assay type: cell-based; details: for EC50: interleukin 4 10 ng/mL; for STAT5/STAT6 EC50 ratio (selectivity for STAT6 over STAT5): selectivity for STAT6 over STAT5, from EC50
Protocol: Twenty-five μL of a STAT6 bla-RA1 (Invitrogen # K1243) cell suspension was seeded with a density of 30-40,000 cells/well in 384-well Black View-plates (PerkinElmer #6007460) with clear bottom in assay medium (Opti-MEM (Invitrogen #11058-021)+0.5% heat inactivated fetal bovine Serum (Invitrogen #10082-147)+1% non-essential amino acids (Invitrogen #11140-050)+1% sodium pyruvate (Invitrogen #11360-070)+1% penicillin/streptomycin (Invitrogen #15140-122)); containing 550 ng/mL of CD40 ligand (Invitrogen # PHP0025). The cell plates were incubated overnight in a humidified 37° C. air/CO2 (95%/5%) incubator. The following day, 125 nL of solutions of test compounds and reference compounds were transferred to cell plates using the Labcyte Echo 550 liquid handler. The plates were then incubated for 1 h in a humidified 37° C. air/CO2 (95%/5%) incubator. Hereafter recombinant human interleukin 4 (Invitrogen # PHC0045) were added to the plates also using the Labcyte Echo 550 to a final concentration of 10 ng/mL. The cells were then incubated for 4½-5 h in a humidified 37° C. air/CO2 (95%/5%) incubator. 8 μL of LiveBLAzer substrate mixture (Invitrogen # K1095) were then added to the assay plates, which were incubated overnight at RT. Fluorescence was then measured: Excitation: 405 nm; Emission: 460 nm (green channel), Emission: 535 nm (blue channel). Background was subtracted in both emission channels and the ratio 460/535 nm was calculated for each well.

JAK3 = JAK3 (Homo sapiens (Human), UniProt P52333); experiment: JAK3 kinase assay (HTRF); assay type: biochemical
Sequence of JAK3 (P52333 822-1111): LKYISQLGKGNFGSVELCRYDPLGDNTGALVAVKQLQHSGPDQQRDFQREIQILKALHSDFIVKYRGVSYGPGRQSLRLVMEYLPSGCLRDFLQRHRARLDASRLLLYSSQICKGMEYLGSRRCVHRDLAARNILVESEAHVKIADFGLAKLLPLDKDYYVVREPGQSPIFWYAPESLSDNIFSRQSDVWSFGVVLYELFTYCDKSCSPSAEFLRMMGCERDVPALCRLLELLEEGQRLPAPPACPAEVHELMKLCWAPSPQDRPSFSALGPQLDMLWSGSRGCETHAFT
Protocol: as §1

STAT5 irfl-bla TF1 cells = experiment: STAT5 assay (EPO stimulated reporter cells); assay type: cell-based; details: Homo sapiens, TF-1; erythropoietin (EPO) 10 ng/mL
Protocol: Twenty-five μL of a STAT5 irfl-bla TF1 (Invitrogen # K1219) cell suspension was seeded with a density of about 10,000 cells/well in 384-well Black View-plates (PerkinElmer #6007460) with clear bottom in assay medium (Opti-MEM (Invitrogen #11058-021)+0.5% heat inactivated fetal bovine Serum (Invitrogen #10082-147)+1% non-essential amino acids (Invitrogen #11140-050)+1% sodium pyruvate (Invitrogen #11360-070)+1% penicillin/streptomycin (Invitrogen #15140-122)). The cell plates were incubated overnight in a humidified 37° C. air/CO2 (95%/5%) incubator. The following day, 125 nL of solutions of test compounds and reference compounds were transferred to cell plates using the Labcyte Echo 550 liquid handler. The plates were then incubated for 1 h in a humidified 37° C. air/CO2 (95%/5%) incubator. Hereafter recombinant human erythropoietin (EPO) (Invitrogen # PHC9634) was added to the plates also using the Labcyte Echo 550 to a final concentration of 10 ng/mL. The cells were then incubated for 4½-5 h in a humidified 37° C. air/CO2 (95%/5%) incubator. 8 μL of LiveBLAzer substrate mixture (Invitrogen # K1095) were then added to the assay plates, which were then incubated overnight at RT. Fluorescence was then measured: Excitation: 405 nm; Emission: 460 nm (green channel), Emission: 535 nm (blue channel). Background was subtracted in both emission channels and the ratio 460/535 nm was calculated for each well.

Sequence of TYK2 (P29597 871-1187): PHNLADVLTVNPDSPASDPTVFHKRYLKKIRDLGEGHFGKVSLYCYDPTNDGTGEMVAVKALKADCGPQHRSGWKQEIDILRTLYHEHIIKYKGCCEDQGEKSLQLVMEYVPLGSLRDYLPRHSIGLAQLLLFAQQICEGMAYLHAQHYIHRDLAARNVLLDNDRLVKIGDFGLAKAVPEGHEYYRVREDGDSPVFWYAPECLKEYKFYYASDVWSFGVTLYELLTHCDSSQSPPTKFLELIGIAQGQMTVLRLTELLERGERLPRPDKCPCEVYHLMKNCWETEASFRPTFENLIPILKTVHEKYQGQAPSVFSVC

## CNc1cc2c(cn1)nc(C(C)O)n2[C@H]1CC[C@H](CC#N)CC1 (stereo partly drawn) [Example 1, trans-2-[4-[2-[1-Hydroxyethyl]-6-(methylamino)imidazo[4,5-c]pyridin-1-yl]cyclohexyl]acetonitrile]
TYK2; ATP at Km (13 μM)
  EC50: 111 nM
JAK2
  EC50: 530 nM
JAK1; ATP at Km (7 μM)
  EC50: 10.8 nM
JAK1
  JAK2/JAK1 ratio: 49
  JAK3/JAK1 ratio: 487
STAT6 bla-RA1 cells
  EC50: 237 nM
  STAT5/STAT6 EC50 ratio (selectivity for STAT6 over STAT5): 62
JAK3; ATP at Km (2 μM)
  EC50: 5260 nM
STAT5 irfl-bla TF1 cells
  EC50: 14600 nM

## CNc1cc2c(cn1)nc([C@H](C)O)n2[C@H]1CC[C@H](CC#N)CC1 [Example 2, trans-2-[4-[2-[(1S)-1-Hydroxyethyl]-6-(methylamino)imidazo[4,5-c]pyridin-1-yl]cyclo-hexyl]acetonitrile]
TYK2
  EC50: 466 nM
JAK2
  EC50: 1130 nM
JAK1
  EC50: 44.4 nM
  JAK2/JAK1 ratio: 25
  JAK3/JAK1 ratio: 221
STAT6 bla-RA1 cells
  EC50: 1160 nM
  STAT5/STAT6 EC50 ratio (selectivity for STAT6 over STAT5): >37
JAK3
  EC50: 9820 nM
STAT5 irfl-bla TF1 cells
  EC50: > 42600 nM

## [2H]C([2H])([2H])Nc1cc2c(cn1)nc([C@@H](C)O)n2[C@H]1CC[C@H](CC#N)CC1 [Example 4, trans-2-[4-[2-[(1R)-1-Hydroxyethyl]-6-(trideuteriomethylamino)imidazo[4,5-c]pyridin-1-yl]cyclohexyl]acetonitrile]
TYK2
  EC50: 43 nM
JAK2
  EC50: 153 nM
JAK1
  EC50: 3.46 nM
  JAK2/JAK1 ratio: 44
  JAK3/JAK1 ratio: 668
STAT6 bla-RA1 cells
  EC50: 141 nM
  STAT5/STAT6 EC50 ratio (selectivity for STAT6 over STAT5): 50
JAK3
  EC50: 2310 nM
STAT5 irfl-bla TF1 cells
  EC50: 7080 nM

## [2H]C([2H])([2H])C([2H])(O)c1nc2cnc(NC)cc2n1[C@H]1CC[C@H](CC#N)CC1 (stereo partly drawn) [Example 5, trans-2-[4-[2-[1,2,2,2-Tetradeuterio-1-hydroxyethyl]-6-(methylamino)imidazo[4,5-c]pyridin-1-yl]cyclohexyl]acetonitrile]
TYK2
  EC50: 102 nM
JAK2
  EC50: 301 nM
JAK1
  EC50: 8.41 nM
  JAK2/JAK1 ratio: 36
  JAK3/JAK1 ratio: 380
STAT6 bla-RA1 cells
  EC50: 270 nM
  STAT5/STAT6 EC50 ratio (selectivity for STAT6 over STAT5): 34
JAK3
  EC50: 3200 nM
STAT5 irfl-bla TF1 cells
  EC50: 9240 nM

## CNc1cc2c(cn1)nc(C(C)O)n2[C@H]1CC[C@@H](CC#N)CC1 (stereo partly drawn) [Example 6, cis-2-[4-[2-[1-Hydroxyethyl]-6-(methylamino)imidazo[4,5-c]pyridin-1-yl]cyclohexyl]acetonitrile]
TYK2; ATP at Km (13 μM)
  EC50: 1110 nM
JAK2
  EC50: 2640 nM
JAK1; ATP at Km (7 μM)
  EC50: 508 nM
JAK1
  JAK2/JAK1 ratio: 5.2
  JAK3/JAK1 ratio: 5.6
STAT6 bla-RA1 cells
  EC50: 8570 nM
  STAT5/STAT6 EC50 ratio (selectivity for STAT6 over STAT5): >5.8
JAK3; ATP at Km (2 μM)
  EC50: 2870 nM
STAT5 irfl-bla TF1 cells
  EC50: > 49800 nM

## CNc1cc2c(cn1)nc([C@@H](C)O)n2[C@H]1CC[C@@H](CC#N)CC1 [Example 7, cis-2-[4-[2-[(1R)-1-Hydroxyethyl]-6-(methylamino)imidazo[4,5-c]pyridin-1-yl]cyclohexyl]acetonitrile]
TYK2; ATP at Km (13 μM)
  EC50: 443 nM
JAK2
  EC50: 981 nM
JAK1; ATP at Km (7 μM)
  EC50: 129 nM
JAK1
  JAK2/JAK1 ratio: 7.6
  JAK3/JAK1 ratio: 7.8
STAT6 bla-RA1 cells
  EC50: 3460 nM
  STAT5/STAT6 EC50 ratio (selectivity for STAT6 over STAT5): >14
JAK3; ATP at Km (2 μM)
  EC50: 1010 nM
STAT5 irfl-bla TF1 cells
  EC50: > 49800 nM
